According to patent US9932637B2, “Genetic polymorphisms associated with cardiovascular disorders and drug response, methods of detection and uses thereof” (CELERA CORPORATION, priority 2003, dated 2018):

Tested on: patients with prior myocardial infarction (CARE study)
Test: CARE: association of SNPs with pravastatin treatment in cardiovascular events prevention (logistic regression, odds ratio pravastatin vs placebo by genotype; Table 8)
Type: in vivo, human
Details: for Fatal/Non-fatal Cerebrovascular Disease, Prava vs. Placebo Odds Ratio (95% CI): ABCA1 hCV2741051, All Patients; for 1st Stroke Occurred During CARE, n/total (%) / Any Report of Stroke During CARE, n/total (%) / Fatal/Non-fatal Cerebrovascular Disease, n/total (%) / Prava vs. Placebo Odds Ratio, 0 Rare Alleles / Prava vs. Placebo Odds Ratio, 1 Rare Alleles / Prava vs. Placebo Odds Ratio, 2 Rare Alleles / Odds ratio pravastatin vs placebo / Fatal CHD/Definite Non-fatal MI, n/total (%) / Hosp. for Unstable Angina, n/total (%) / Total Coronary Heart Disease Events, n/total (%): All Patients; for 1st Stroke Occurred During CARE, n/total (%) / Any Report of Stroke During CARE, n/total (%) / Fatal/Non-fatal Cerebrovascular Disease, n/total (%) / Fatal CHD/Definite Non-fatal MI, n/total (%) / Hosp. for Unstable Angina, n/total (%) / Total Coronary Heart Disease Events, n/total (%): Prava; for Catheterization, n/total (%): ABCC8 hCV600632, All Patients; for Catheterization, n/total (%) / Nonfatal MI (Probable/Definite), n/total (%) / Nonfatal MI (def & prob), n/total (%): Prava arm
Description: In order to identify genetic markers associated with acute coronary events (e.g. MI, stroke, unstable angina, congestive heart failure, etc.) or response to statin treatment for the prevention of coronary events, samples from the Cholesterol and Recurrent Events (CARE) study (a randomized multicentral double-blinded trial on secondary prevention of acute coronary events with pravastatin) (Sacks et al., 1991, Am. J. Cardiol. 68: 1436-1446) were genotyped. A well-documented myocardial infarction (MI) was one of the enrollment criteria for entry into the CARE study. Patients were enrolled in the CARE trial from 80 participating study centers. […] Patients were randomized to receive either 40 mg of pravastatin once daily or a matching placebo. The primary endpoint of the trial was death from coronary heart disease and the median duration of follow-up was 5.0 years (range, 4.0 to 6.2 years). […] Secondary endpoints of other related cardiovascular or metabolic disease events, and changes in clinical variables were also recorded in pravastatin-treated and placebo groups. All individuals included in the study had signed a written informed consent form and the study protocol was approved by the respective Institutional Review Boards (IRBs).
For genotyping SNPs in CARE patient samples, DNA was extracted from blood samples using conventional DNA extraction methods such as the QIA-amp kit from Qiagen. Genotypes were obtained on an ABI PRISM® 7900HT Sequence Detection PCR system (Applied Biosystems, Foster City, Calif.) by kinetic allele-specific PCR, similar to the method described by Germer et al. (Germer S., Holland M. J., Higuchi R. 2000, Genome Res. 10: 258-266).
Statistical analysis for association of SNPs with pravastatin treatment in cardiovascular events prevention (Table 8) was carried out using an overall logistic regression model that included an intercept, a parameter for the effect of a genotype containing two rare alleles versus a genotype containing no rare alleles, a parameter for the effect of a genotype containing one rare allele versus a genotype containing no rare alleles, a parameter for the effect of use of pravastatin versus the use of placebo, and parameters for the interaction effects between SNP genotypes and pravastatin use. The test of the overall model is a chi-square test with two degrees of freedom for analyses containing all three genotypes, and one degree of freedom for analyses containing two genotypes.
Effect sizes were estimated through odds ratios (pravastatin group versus placebo) for carriers of each genotype (groups of 0, 1, and 2 minor allele carriers). The effect was considered to be significant if p-value for testing whether any of the interactions between SNP genotypes and pravastatin use were <0.05. […] Odds ratios less than one indicate that the specific SNP allele has a protective effect and odds ratios greater than one indicate that the specific SNP allele has an adverse effect.

[1] = ABCA1 hCV2741051, 1 Rare Allele, n/total 5/651
[2] = ABCA1 hCV2741051, 1st Stroke Occurred During CARE
[3] = ABCA1 hCV2741051, 2 Rare Alleles, n/total 2/127
[4] = ABCA1 hCV2741051, Any Report of Stroke During CARE
[5] = ADAMTS13 hCV11571465, All Patients, 0 Rare Alleles
[6] = ADAMTS13 hCV11571465, All Patients, 1 Rare Allele
[7] = ADAMTS13 hCV11571465, All Patients, 2 Rare Alleles
[8] = AGTR1 hCV3187716, Fatal CHD/Definite Non-fatal MI
[9] = AGTR1 hCV3187716, Hosp. for Unstable Angina
[10] = AGTR1 hCV3187716, Total Coronary Heart Disease Events

CC[C@H](C)C(=O)O[C@H]1C[C@H](O)C=C2C=C[C@H](C)[C@H](CC[C@@H](O)C[C@@H](O)CC(=O)O)[C@H]21 [pravastatin]
Fatal/Non-fatal Cerebrovascular Disease, Prava vs. Placebo Odds Ratio (95% CI) (0 Rare Alleles): 0.98
Fatal/Non-fatal Cerebrovascular Disease, Prava vs. Placebo Odds Ratio (95% CI) (1 Rare Alleles): 0.43
Fatal/Non-fatal Cerebrovascular Disease, Prava vs. Placebo Odds Ratio (95% CI) (2 Rare Alleles): 0.26
1st Stroke Occurred During CARE, n/total (%) (ABCA1 hCV2741051, 0 Rare Alleles, n/total 26/730): (3.6%)
Any Report of Stroke During CARE, n/total (%) (ABCA1 hCV2741051, 0 Rare Alleles, n/total 27/730): (3.7%)
Fatal/Non-fatal Cerebrovascular Disease, n/total (%) (ABCA1 hCV2741051, 0 Rare Alleles, n/total 51/730): (7.0%)
1st Stroke Occurred During CARE, n/total (%) [1]: (0.8%)
Any Report of Stroke During CARE, n/total (%) [1]: (0.8%)
Fatal/Non-fatal Cerebrovascular Disease, n/total (%) (ABCA1 hCV2741051, 1 Rare Allele, n/total 18/651): (2.8%)
Prava vs. Placebo Odds Ratio, 0 Rare Alleles [2]: 0.98
Prava vs. Placebo Odds Ratio, 1 Rare Alleles [2]: 0.26
Prava vs. Placebo Odds Ratio, 2 Rare Alleles [2]: 0.23
1st Stroke Occurred During CARE, n/total (%) [3]: (1.6%)
Any Report of Stroke During CARE, n/total (%) [3]: (1.6%)
Fatal/Non-fatal Cerebrovascular Disease, n/total (%) (ABCA1 hCV2741051, 2 Rare Alleles, n/total 3/127): (2.4%)
Prava vs. Placebo Odds Ratio, 0 Rare Alleles [4]: 0.92
Prava vs. Placebo Odds Ratio, 1 Rare Alleles [4]: 0.21
Prava vs. Placebo Odds Ratio, 2 Rare Alleles [4]: 0.23
Catheterization, n/total (%) (0 Rare Alleles): (12.0%)
Catheterization, n/total (%) (1 Rare Allele): (8.8%)
Catheterization, n/total (%) (2 Rare Alleles): (10.2%)
Odds ratio pravastatin vs placebo (ABCC8 hCV600632, Catheterization, 0 rare alleles): 1.21
Odds ratio pravastatin vs placebo (ABCC8 hCV600632, Catheterization, 1 rare allele): 0.55
Odds ratio pravastatin vs placebo (ABCC8 hCV600632, Catheterization, 2 rare alleles): 0.81
Nonfatal MI (Probable/Definite), n/total (%) [5]: (9.1%)
Nonfatal MI (def & prob), n/total (%) [5]: (9.1%)
Nonfatal MI (Probable/Definite), n/total (%) [6]: (10.3%)
Nonfatal MI (def & prob), n/total (%) [6]: (9.6%)
Nonfatal MI (Probable/Definite), n/total (%) [7]: (6.6%)
Nonfatal MI (def & prob), n/total (%) [7]: (6.2%)
Odds ratio pravastatin vs placebo (ADAMTS13 hCV11571465, Nonfatal MI (Probable/Definite), 0 rare alleles): 0.62
Odds ratio pravastatin vs placebo (ADAMTS13 hCV11571465, Nonfatal MI (Probable/Definite), 1 rare allele): 0.88
Odds ratio pravastatin vs placebo (ADAMTS13 hCV11571465, Nonfatal MI (Probable/Definite), 2 rare alleles): 0.38
Odds ratio pravastatin vs placebo (ADAMTS13 hCV11571465, Nonfatal MI (def & prob), 0 rare alleles): 0.65
Odds ratio pravastatin vs placebo (ADAMTS13 hCV11571465, Nonfatal MI (def & prob), 1 rare allele): 0.91
Odds ratio pravastatin vs placebo (ADAMTS13 hCV11571465, Nonfatal MI (def & prob), 2 rare alleles): 0.37
Fatal CHD/Definite Non-fatal MI, n/total (%) (AGTR1 hCV3187716, 0 Rare Alleles, n/total 63/769): (8.2%)
Hosp. for Unstable Angina, n/total (%) (AGTR1 hCV3187716, 0 Rare Alleles, n/total 120/769): (15.6%)
Total Coronary Heart Disease Events, n/total (%) (AGTR1 hCV3187716, 0 Rare Alleles, n/total 227/769): (29.5%)
Fatal CHD/Definite Non-fatal MI, n/total (%) (AGTR1 hCV3187716, 1 Rare Allele, n/total 72/625): (11.5%)
Hosp. for Unstable Angina, n/total (%) (AGTR1 hCV3187716, 1 Rare Allele, n/total 103/625): (16.5%)
Total Coronary Heart Disease Events, n/total (%) (AGTR1 hCV3187716, 1 Rare Allele, n/total 194/625): (31.0%)
Fatal CHD/Definite Non-fatal MI, n/total (%) (AGTR1 hCV3187716, 2 Rare Alleles, n/total 5/120): (4.2%)
Hosp. for Unstable Angina, n/total (%) (AGTR1 hCV3187716, 2 Rare Alleles, n/total 8/120): (6.7%)
Total Coronary Heart Disease Events, n/total (%) (AGTR1 hCV3187716, 2 Rare Alleles, n/total 20/120): (16.7%)
Prava vs. Placebo Odds Ratio, 0 Rare Alleles [8]: 0.63
Prava vs. Placebo Odds Ratio, 1 Rare Alleles [8]: 0.95
Prava vs. Placebo Odds Ratio, 2 Rare Alleles [8]: 0.24
Prava vs. Placebo Odds Ratio, 0 Rare Alleles [9]: 0.89
Prava vs. Placebo Odds Ratio, 1 Rare Alleles [9]: 0.90
Prava vs. Placebo Odds Ratio, 2 Rare Alleles [9]: 0.27
Prava vs. Placebo Odds Ratio, 0 Rare Alleles [10]: 0.80
Prava vs. Placebo Odds Ratio, 1 Rare Alleles [10]: 0.82
Prava vs. Placebo Odds Ratio, 2 Rare Alleles [10]: 0.38
Nonfatal MI (Probable/Definite), n/total (%) (APOE hCV905013, All Patients, 0 Rare Alleles): (8.4%)
Nonfatal MI (Probable/Definite), n/total (%) (APOE hCV905013, All Patients, 1 Rare Allele): (10.4%)
Nonfatal MI (Probable/Definite), n/total (%) (APOE hCV905013, All Patients, 2 Rare Alleles): (7.8%)
Odds ratio pravastatin vs placebo (APOE hCV905013, Nonfatal MI (Probable/Definite), 0 rare alleles): 0.51
